Assay results: patent US6838574B1, “Dicarba-closo-dodecarborane derivatives” (Institute of Medicinal Molecular Design, Inc., priority 1999, dated 2005)

What was measured:
Type in all cases: cell-based
[1] = molecular target: T1, rat estrogen receptor (pCI-rER α) (Rattus norvegicus, UniProt P06211); assay: Antiestrogenic activity, luciferase reporter gene assay with coexisting β-estradiol; settings: for IC50: coexisting β-estradiol 1 × 10^−9M
T1 construct: expressed in transfected cells; host or cells: COS-1 cells
T1 sequence (P06211 1-600): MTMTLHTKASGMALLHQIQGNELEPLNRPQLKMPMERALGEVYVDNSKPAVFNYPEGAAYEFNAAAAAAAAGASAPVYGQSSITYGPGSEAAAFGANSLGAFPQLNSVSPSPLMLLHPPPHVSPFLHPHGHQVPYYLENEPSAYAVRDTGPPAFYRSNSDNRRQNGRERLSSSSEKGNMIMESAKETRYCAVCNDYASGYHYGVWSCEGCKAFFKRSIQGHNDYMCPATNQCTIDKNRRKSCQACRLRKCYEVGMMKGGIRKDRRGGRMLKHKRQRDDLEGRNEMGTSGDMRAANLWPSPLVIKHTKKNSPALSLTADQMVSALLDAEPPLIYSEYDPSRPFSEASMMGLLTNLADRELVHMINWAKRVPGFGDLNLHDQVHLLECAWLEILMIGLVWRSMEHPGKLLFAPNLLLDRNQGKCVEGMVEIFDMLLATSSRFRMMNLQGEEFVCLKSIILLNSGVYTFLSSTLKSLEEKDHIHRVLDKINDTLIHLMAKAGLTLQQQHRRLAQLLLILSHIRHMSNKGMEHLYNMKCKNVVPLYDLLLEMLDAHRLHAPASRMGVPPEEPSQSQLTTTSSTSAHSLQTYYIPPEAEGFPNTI
Description: As estrogenic activity, estrogen receptor-dependent transcriptional activation abilities of the test compounds were determined by the r porter gene assay using luciferase gene. COS-1 cells were cultured using a DMEM medium containing an antibiotics and 5% bovine fetal serum in the wells of 24 well plates (cell density: 5 to 6×10^4/well) at 37° C. for one night under 5% carbon dioxide. On the next day, the medium was changed to DMEM medium not containing Phenol Red. Using gene introducing reagent Tfx-20 (Promega), reporter plasmid EREx3-pGL-TK, in which rat estrogen receptor expression plasmid pCI-rER α and an estrogen responsive sequence were placed upstream of the luciferase gene, and β-galactosidase expression plasmid pCMV β used as an internal standard were introduced into cells. The cells were cultured for 2 h, and the medium was changed to DMEM not containing Phenol Red but containing active charcoal-treated serum.
The culture was added with each test compound dissolved in ethanol at various concentrations (final ethanol concentration at 0.5%) and then cultivation was continued at 37° C. for one night under 5% carbon dioxide. On the next day, the cells were lysed and enzymatic activity of luciferase expressed was measured by using a chemiluminometer. The values were standardized based on galactocidase enzymatic activity, and then compared with the values obtained by experiments using no test compound and used as values of activity at various concentrations. […] The estrogenic activities in the table are shown as concentrations for 50% activity (EC50 values) which give 50% activities relative to luciferase activity regarded as 100 that is expressed by treatment with the control compound β-estradiol at 10 nM. Each compound tested in this experiment has a high estrogenic activity.
As antiestrogenic activities, estrogen receptor-dependent transcriptional activation abilities of the test compounds were measured by the reporter gene assay using luciferase gene in the same manner as the estrogen activity measurement. In Table 7, antiestrogenic activities of test compounds are indicated as IC50 values as 50% inhibitory concentrations relative to the luciferase activity regarded as 100 which is expressed by β-estradiol at 1 nM coexisting in the experimental system. Each compound tested in this experiment has antiestrogenic activity.

[2] = tested on: human promyelocytic leukemia cell strain HL-60; assay: HL-60 differentiation with coexisting HX630 (enhancer of differentiation inducers); settings: for percentage of differentiated cells, coexisting compound HX630: coexisting HX630 1 × 10^−7M, control <10; for differentiation inducing activity with HX630 (in words): coexisting HX630 (Table 3)
[3] = tested on: human promyelocytic leukemia cell strain HL-60; assay: HL-60 differentiation induction, test compound alone; settings: for percentage of differentiated cells, no coexisting compound: HL-60, 4 days, control <10
Description: Inhibitory activity against proliferation of human promyelocytic leukemia cell strain HL-60 was evaluated an index of anti-leukemia activity. Subcultured HL-60 cells were seeded with the initial cell number of 8×10^4 cells/ml in the RPMI 1640 medium containing bovine fetal serum and an antibiotics. Each test compound was added at various concentrations and the mixture was cultured at 37° C. Four days later, cell number was counted. Anti-leukemia activity of each test compound was shown in the tables as percentage values of differentiated cells, which cells were not differentiated in the absence of the test drug, […] observation and NBT reducing ability of the cells as indexes.

[4] = tested on: human promyelocytic leukemia cell strain HL-60; assay: HL-60 differentiation with coexisting differentiation inducer Am80 (anti-differentiation activity); settings: for percentage of differentiated cells, coexisting compound Am80: coexisting Am80 3.3 × 10^−10M, control 55
[5] = test compound 1 μM, morphology and NBT reducing ability

IC50 [1]	Molecule	percentage of differentiated cells, coexisting compound HX630 ([2]; HL-60)	percentage of differentiated cells, no coexisting compound [3, 5]	percentage of differentiated cells, coexisting compound Am80 ([4]; HL-60)	also measured
10 nM	1-(4-hydroxyphenyl)-12-(4-dimethylaminoethoxyphenyl)-1,12-dicarba-closo-dodecaborane [BR162]				
30 nM	1-(4-hydroxyphenyl)-2(4-dimethylamino-ethoxyphenyl)-1,2-dicarba-closo-dodecaborane [BR362]				antiestrogenic activity (in words) ([1]; coexisting β-estradiol 1 nM, tamoxifen as control): strong activity comparable to that of antiestrogenic drug tamoxifen
	4-[4-(2-methyl-1,2-dicarba-closo-dodecaboran-1-yl) phenylamino]benzoic acid [BR401]	75%	70%	60%	differentiation inducing activity at low concentration (in words) ([3]; 0.01 μM test compound, HL-60): activities were maintained; percentage of differentiated cells, no coexisting compound ([3]; test compound 0.01 μM): 26%; differentiation inducing activity (in words) ([3]; test compound alone, HL-60): strong differentiation inducing activities
600 nM	1-(2-hydroxyphenyl)-12-(3-dimethylaminoethoxyphenyl)-1,12-dicarba-closo-dodecaborane [BR172]				
	CC1(C)CCC(C)(C)c2cc3c(cc21)Sc1ccccc1N=C3c1ccc(C(=O)O)cc1 [HX630, 4-[2,3-(2,5-dimethyl-2,5-hexano)dibenzo-[b,f]-[1,4]thiazepin-11-yl]benzoic acid, reference compound]				percentage of differentiated cells, control (HX630 without test compound) ([2]; HX630 1 × 10^−7M alone, HL-60): HX630 1 × 10^−7M (control: <10) %
	4-[4-(2-methyl-1,2-dicarba-closo-dodecaboran-1-yl)-phenylcarbamoyl]benzoic acid [BR201]	12%	11%	5%	anti-differentiation activity (in words) ([4]; coexisting Am80 (Table 2)): strong anti-differentiation activity
200 nM	1-(3-hydroxyphenyl)-2-(3-dimethylaminoethoxyphenyl)-1,2-dicarba-closo-dodecaborane [BR372]				
	4-{N-methyl-[2-methyl-4-(2-methyl-1,2-dicarba-closo-dodecaboran-1-yl)]phenylamino}benzoic acid [BR431]	12%	10%	55%	
	4-[3-(2-methyl-1,2-dicarba-closo-dodecaboran-1-yl)phenylcarbamoyl]benzoic acid [BR251]	77%	8%	55%	differentiation inducing activity with HX630 (in words) [2]: differentiation inducing activities
	4-[2-(1,2-dicarba-closo-dododecaboran-1-yl)-(E)-ethenylcarboxamide]benzoic acid [BR110]	48%	12%	60%	differentiation inducing activity with HX630 (in words) [2]: differentiation inducing activities
	4-{[4-(1,2-dicarba-closo-dodecaboran-1-yl)phenyl]carboxamide}benzoic acid [BR300]	8%	6%	37%	
500 nM	1-(3-hydroxyphenyl)-7-(3-dimethylaminoethoxyphenyl)-1,7-dicarba-closo-dodecaborane [BR272]				
	4-[[3-(1,2-Dicarba-closo-dodecaboran-1-yl)phenyl]carboxamide]benzoic acid [BR350]	48%	11%	60%	differentiation inducing activity with HX630 (in words) [2]: differentiation inducing activities
	CC1(C)CCC(C)(C)c2cc(NC(=O)c3ccc(C(=O)O)cc3)ccc21 [Am80, 4-[(5,6,7,8-tetrahydro-5,5,8,8-tetramethyl-2-naphthalenyl)carbamoyl]benzoic acid, reference compound]				percentage of differentiated cells, control (Am80 without test compound) ([4]; Am80 3.3 × 10^−10M alone, HL-60): Am80 3.3 × 10^−10M (control: 55) %
200 nM	1-(4-hydroxyphenyl)-7-(4-dimethylaminoethoxyphenyl)-1,7-dicarba-closo-dodecaborane [BR262]				
